Experimental data reported in patent US20180271930A1, “METHOD FOR RAISING POULTRY” (priority 2015, published 2018).

Tests used:
[1] = Examination 2-1: breeding performance at 21 and 28 days old after GSSG prestarter feed; format: in vivo, broiler chicks; settings: 0.01% by mass GSSG feed for first 72 h, n = 6
Description: Newly hatched broiler chicks (Ross Breeders Ltd.) were fed with a feed composition for 3 days. The feed composition contained GSSG at a level of 0.01% by mass which was thought to be appropriate based on Examination 1. […] Two groups, which were a control group and a GSSG addition group (0.01% by mass), were set. In each group, 6 males and 6 females were tested. Chicks received at 0 day old were fed with a test feed composition (initial-phase feed composition) during 72 hours after the receipt. […] Their body weights, breast meat weights, leg meat weights, and liver weights were measured. As the initial-phase feed composition, the feed composition comprising 0.01% by mass of GSSG used in Examination 1 was used for the GSSG addition group, and the feed composition (ME3,100 kcal/kg, CP21) free of GSSG used in Examination 1 was used for the control group. […] An ammonium salt was used as oxidized glutathione (GSSG). The GSSG contained 95.6% by mass of oxidized glutathione, and the content of reduced glutathione mixed therein was 0.1% by mass or less.

[2] = Examination 2-2: breeding performance at 40 days old after GSSG prestarter feed; format: in vivo, broiler chicks (Ross 308); settings: 0.01% by mass GSSG feed for first 72 h, n = 12
Description: Thereafter, the composition was replaced by an ordinary feed composition of the same type and the chicks were raised until they became 40 days old. […] Two groups, which were a control group and a GSSG addition group (0.01% by mass) were set. In each group, 6 males and 6 females were tested. Chicks received at 0 day old were fed with a test feed composition (initial-phase feed composition) during 72 hours after the receipt. […] The body weight was measured, and the meat yield and feed conversion ratio were determined. As the initial-phase feed composition, the 0.01% by mass GSSG-containing feed composition used in Examination 1 was used in the GSSG addition group, and the feed composition (ME3,100 kcal/kg, CP21) free of GSSG used in Examination 1 was used for the control group. […] An ammonium salt was used as oxidized glutathione (GSSG). The GSSG contained 95.6% by mass of oxidized glutathione, and the content of reduced glutathione mixed therein was 0.1% by mass or less. […] The term “meat yield” refers to a proportion of meat excluding bones and fats with respect to the body weight. The meat yield can be determining by performing slaughtering and butchering, collecting meat alone, and weighing the collected meat.

[3] = Examination 6: body weight at 21 days old after GSSG feed (0.01% or 0.05%) for 3 days; format: in vivo, broiler chicks; settings: n = 12
Description: Newly hatched broiler chicks (Ross Breeders Ltd.) were fed with a feed composition containing GSSG at 0.01% by mass or 0.05% by mass for 3 days. […] Three groups, which were a control group, a GSSG addition group (0.01% by mass), and a GSSG addition group (0.05% by mass), were set. In each group, 6 males and 6 females were tested. Chicks received at 0 day old were fed with a test feed composition (initial-phase feed composition) during 72 hours after the receipt. […] Their body weights were measured. A feed composition used as an initial-phase feed composition, for which the level of GSSG was set to 0.01% by mass or […], is a composition prepared by adding GSSG at 0.01% by mass or 0.1% by mass to a composition (ME3,100 kcal/kg, CP21) containing corn, soybean meal, corn gluten meal, fat and oil, calcium carbonate (powder), tricalcium phosphate, dietary salt, DL-methionine, L-lysine chloride, choline chloride, and vitamins/minerals in accordance with the NRC requirements. The feed composition (ME3,100 kcal/kg, CP21) free of GSSG used in Examination 1 was used for the control group. […] An ammonium salt was used as GSSG. The GSSG contained 95.6% by mass of oxidized glutathione, and the content of reduced glutathione mixed therein was 0.1% by mass or less.

myogenin = assay: Examination 1: myogenin gene expression in superficial pectoral muscle (real-time PCR, relative to RPS9); format: in vivo, broiler chicks of the Chunky breed (Ross 308); settings: 3 days old, GSSG addition group (0.01% or 0.1% feed), FIG. 1B, n=6
Source text: FIGS. 1A to 1D illustrate graphs showing the expression of genes related to skeletal muscle cell differentiation in superficial pectoral muscles upon administration of each feed composition in Examination 1 (n=6). […] A relative value of the expression level of each factor is expressed as an average±standard deviation of values obtained by dividing the expression levels of each factor by the expression level of RPS9. Each different symbol denotes a significant difference in the […] multiple comparison test (P<0.05). Newly hatched broiler chicks of the Chunky breed (Ross 308, Ross Breeders Ltd.) were tested. […] Real-time PCR was performed by adding cDNA, a primer set, and other necessary reagents to wells of a 96-well PCR plate, preheating the plate using a thermal cycler at 95° C. for 3 minutes, followed by 35 cycles of steps of denaturation, annealing, and elongation in a repetitive manner, and measurement of […] after the elongation step for each cycle. The expression level of each gene was designated as a relative value obtained by dividing the determined amount of an amplification product of IGF-I, myostatin, MyoD, or myogenin by the amount of an amplification product of RPS9. […] The amount of GSSG used herein was determined in terms of the amount of free oxidized glutathione. […]

For oxidized glutathione [GSSG], the Breast meat ([1]; 21 days old) was 118 ± 4 g, the Leg meat ([1]; 21 days old) was 136 ± 6 g and the Weight ([1]; 21 days old) was 933 ± 65 g. It also gave a Breast meat ([1]; 28 days old) of 186 ± 15 g, a Leg meat ([1]; 28 days old) of 206 ± 12 g and a Weight ([1]; 28 days old) of 1500 ± 149 g. The Meat yield ([2]; 40 days old) was 42.1 ± 1.1 % by mass, the Weight ([2]; 40 days old) was 2214 ± 79 g and the “Feed conversion ratio (mass ratio)” value ([2]; until 40 days old) was 1.52 ± 0.09. For the same substance, the 21-day-old weight ([3]; GSSG 0.01% by mass in feed for 3 days) was 961 ± 84 g, the 21-day-old weight ([3]; GSSG 0.05% by mass in feed for 3 days) was 986 ± 67 g and the “myogenin expression level vs control group” value (myogenin) was “significant decreases”.
